Experiments:
CAL-27 [1] = assay: Antiproliferative activity against human CAL-27 cells without HDAC4 expression assessed as inhibition of cell growth incubated for 72 hrs by MTT assay; type: functional, cell-based; settings: CAL-27, 72 h
CAL-27 [2] = assay: Antiproliferative activity against human CAL-27 cells overexpressing HDAC4 assessed as inhibition of cell growth incubated for 72 hrs by MTT assay; type: functional, cell-based; settings: CAL-27, 72 h
THP-1 [3] = assay: Antiproliferative activity against human THP-1 cells assessed as reduction in cell viability at 100 uM incubated for 72 hrs by MTT assay relative to control; type: functional
Histone deacetylase 4 = Histone deacetylase 4 (Homo sapiens, UniProt P56524); assay: Inhibition of human recombinant TEV-8His-tagged HDAC4 (648 to 1057 residues) expressed in Escherichia coli (DE3) Rosetta cells using Boc-Lys-(Tfa)-AMC as substrate preincubated for 5 mins followed by substrate addition and measured after 90 mins by fluorescence based microplate reader analysis
Histone deacetylase 2 = Histone deacetylase 2 (Homo sapiens, UniProt Q92769); assay: Inhibition of human recombinant HDAC2 using Boc-Lys(Ac)-AMC as substrate preincubated for 5 mins followed by substrate addition and measured after 90 mins by fluorescence based microplate reader analysis
Histone deacetylase 1 = Histone deacetylase 1 (Homo sapiens, UniProt Q13547); assay: Inhibition of HDAC1 (unknown origin)
[4] = Inhibition of Class IIa/8 HDAC in human THP-1 cells preincubated for 18 hrs followed by substrate addition and measured after 3 hrs by fluorescence based microplate reader assay; type: cell-based
Histone deacetylase 5 = Histone deacetylase 5 (Homo sapiens, UniProt Q9UQL6); assay: Inhibition of HDAC5 (unknown origin)
THP-1 [5] = assay: Inhibition of Class I/IIb HDAC in human THP-1 cells at 100 uM preincubated for 18 hrs followed by substrate addition and measured after 3 hrs by fluorescence based microplate reader assay relative to control; type: cell-based; settings: time 21.0 hrs
[6] = molecular target: T1, Protein deacetylase HDAC6 (Homo sapiens, UniProt Q9UBN7); assay: Inhibition of human recombinant HDAC6 using Boc-Lys(Ac)-AMC as substrate preincubated for 5 mins followed by substrate addition and measured after 90 mins by fluorescence based microplate reader analysis
T1 sequence (Q9UBN7 whole entry): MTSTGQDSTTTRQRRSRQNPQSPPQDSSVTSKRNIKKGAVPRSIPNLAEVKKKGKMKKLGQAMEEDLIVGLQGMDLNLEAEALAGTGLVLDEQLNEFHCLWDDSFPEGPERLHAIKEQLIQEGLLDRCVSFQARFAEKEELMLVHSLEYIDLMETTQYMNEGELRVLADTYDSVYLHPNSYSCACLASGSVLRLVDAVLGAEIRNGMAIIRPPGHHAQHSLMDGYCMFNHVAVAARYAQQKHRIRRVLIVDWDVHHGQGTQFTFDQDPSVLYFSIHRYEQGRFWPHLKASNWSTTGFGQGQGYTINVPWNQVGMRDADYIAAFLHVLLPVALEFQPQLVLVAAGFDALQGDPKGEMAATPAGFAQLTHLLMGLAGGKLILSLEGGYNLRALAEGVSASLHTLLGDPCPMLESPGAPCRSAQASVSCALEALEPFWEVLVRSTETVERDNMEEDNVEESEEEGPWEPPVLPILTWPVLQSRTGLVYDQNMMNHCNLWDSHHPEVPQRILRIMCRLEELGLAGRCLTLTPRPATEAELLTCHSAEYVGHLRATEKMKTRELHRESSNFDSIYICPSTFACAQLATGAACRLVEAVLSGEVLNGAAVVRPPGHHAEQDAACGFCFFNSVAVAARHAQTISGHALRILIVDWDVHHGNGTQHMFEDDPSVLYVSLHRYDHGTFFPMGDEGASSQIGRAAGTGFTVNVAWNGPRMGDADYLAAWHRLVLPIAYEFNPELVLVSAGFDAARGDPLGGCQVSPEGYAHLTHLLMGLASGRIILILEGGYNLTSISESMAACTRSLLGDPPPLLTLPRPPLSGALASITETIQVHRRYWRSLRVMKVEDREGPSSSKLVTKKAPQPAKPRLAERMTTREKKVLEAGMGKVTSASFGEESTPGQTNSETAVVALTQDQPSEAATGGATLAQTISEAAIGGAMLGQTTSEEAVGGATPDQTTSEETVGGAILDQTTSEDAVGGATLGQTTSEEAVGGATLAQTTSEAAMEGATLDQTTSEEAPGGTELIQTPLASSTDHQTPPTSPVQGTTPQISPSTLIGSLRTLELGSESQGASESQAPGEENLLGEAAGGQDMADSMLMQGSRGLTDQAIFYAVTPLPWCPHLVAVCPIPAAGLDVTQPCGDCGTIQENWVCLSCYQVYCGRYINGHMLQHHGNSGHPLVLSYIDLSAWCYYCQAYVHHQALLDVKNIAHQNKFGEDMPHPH

[7] = Inhibition of Class I/IIb HDAC in human THP-1 cells preincubated for 18 hrs followed by substrate addition and measured after 3 hrs by fluorescence based microplate reader assay; type: cell-based
Histone deacetylase 3 = Histone deacetylase 3 (Homo sapiens, UniProt O15379); assay: Inhibition of HDAC3 (unknown origin)
Histone deacetylase 8 = molecular target: T2, Histone deacetylase 8 (Homo sapiens, UniProt Q9BY41); assay: Inhibition of human recombinant HDAC8 using Boc-Lys-(Tfa)-AMC as substrate preincubated for 5 mins followed by substrate addition and measured after 90 mins by fluorescence based microplate reader analysis
T2 sequence (Q9BY41 whole entry): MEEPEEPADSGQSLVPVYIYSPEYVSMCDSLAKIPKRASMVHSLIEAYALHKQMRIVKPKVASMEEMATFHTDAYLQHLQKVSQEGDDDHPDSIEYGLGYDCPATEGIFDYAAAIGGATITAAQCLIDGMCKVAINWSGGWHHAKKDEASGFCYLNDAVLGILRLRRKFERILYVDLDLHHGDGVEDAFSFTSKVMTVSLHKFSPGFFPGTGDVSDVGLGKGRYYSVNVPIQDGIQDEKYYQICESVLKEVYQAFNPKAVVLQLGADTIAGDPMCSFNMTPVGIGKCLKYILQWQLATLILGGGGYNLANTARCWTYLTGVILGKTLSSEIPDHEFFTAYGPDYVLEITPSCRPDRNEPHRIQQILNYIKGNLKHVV

THP-1 [8] = assay: Inhibition of Class IIa/8 HDAC in human THP-1 cells at 100 uM preincubated for 18 hrs followed by substrate addition and measured after 3 hrs by fluorescence based microplate reader assay relative to control; type: cell-based; settings: time 21.0 hrs, values are per cent of control
Histone deacetylase 11 = molecular target: T3, Histone deacetylase 11 (Homo sapiens, UniProt Q96DB2); assay: Inhibition of HDAC11 (unknown origin)
T3 sequence (Q96DB2 whole entry): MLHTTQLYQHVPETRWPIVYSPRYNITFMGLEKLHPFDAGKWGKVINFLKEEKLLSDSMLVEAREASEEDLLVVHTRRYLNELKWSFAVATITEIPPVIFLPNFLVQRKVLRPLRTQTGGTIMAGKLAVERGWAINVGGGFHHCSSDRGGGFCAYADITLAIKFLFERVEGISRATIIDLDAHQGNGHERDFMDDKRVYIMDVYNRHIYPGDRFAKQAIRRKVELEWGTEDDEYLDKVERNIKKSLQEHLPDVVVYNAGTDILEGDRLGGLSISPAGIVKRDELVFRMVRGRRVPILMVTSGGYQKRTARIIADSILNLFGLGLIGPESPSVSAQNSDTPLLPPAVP

THP-1 [9] = assay: cells; settings: Homo sapiens, THP-1, 72 h
Description: Antiproliferative activity against human THP-1 cells assessed as inhibition of cell growth incubated for 72 hrs by MTT assay

Sequence of Histone deacetylase 4 (P56524 whole entry, the tested form may be a part): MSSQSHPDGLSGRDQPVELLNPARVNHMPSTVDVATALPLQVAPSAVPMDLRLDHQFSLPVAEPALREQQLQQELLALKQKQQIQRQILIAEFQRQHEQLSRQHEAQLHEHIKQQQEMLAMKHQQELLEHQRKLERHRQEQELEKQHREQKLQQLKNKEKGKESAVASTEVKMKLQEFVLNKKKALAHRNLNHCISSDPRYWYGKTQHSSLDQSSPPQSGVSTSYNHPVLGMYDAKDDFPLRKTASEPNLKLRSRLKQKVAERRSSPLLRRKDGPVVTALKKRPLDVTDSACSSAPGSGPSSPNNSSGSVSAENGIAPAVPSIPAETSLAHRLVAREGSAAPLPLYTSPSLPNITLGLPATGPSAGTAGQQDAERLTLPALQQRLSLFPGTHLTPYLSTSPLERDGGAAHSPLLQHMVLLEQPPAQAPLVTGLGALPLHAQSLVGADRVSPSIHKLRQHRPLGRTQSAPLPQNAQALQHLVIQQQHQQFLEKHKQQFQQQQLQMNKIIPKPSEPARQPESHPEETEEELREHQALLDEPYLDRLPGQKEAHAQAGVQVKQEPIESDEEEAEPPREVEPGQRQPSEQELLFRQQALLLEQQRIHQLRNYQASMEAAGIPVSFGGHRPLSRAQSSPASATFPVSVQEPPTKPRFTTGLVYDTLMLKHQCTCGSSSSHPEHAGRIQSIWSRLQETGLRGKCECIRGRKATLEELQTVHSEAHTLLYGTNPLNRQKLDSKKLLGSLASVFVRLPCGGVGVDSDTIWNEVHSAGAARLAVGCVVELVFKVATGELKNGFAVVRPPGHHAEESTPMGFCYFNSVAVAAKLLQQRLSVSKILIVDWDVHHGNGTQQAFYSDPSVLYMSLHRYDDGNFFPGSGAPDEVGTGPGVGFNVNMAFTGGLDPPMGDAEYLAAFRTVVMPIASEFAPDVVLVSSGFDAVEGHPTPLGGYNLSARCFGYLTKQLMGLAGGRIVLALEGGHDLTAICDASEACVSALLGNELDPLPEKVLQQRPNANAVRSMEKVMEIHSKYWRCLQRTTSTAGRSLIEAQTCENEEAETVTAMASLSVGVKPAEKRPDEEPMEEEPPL
Sequence of Histone deacetylase 2 (Q92769 whole entry): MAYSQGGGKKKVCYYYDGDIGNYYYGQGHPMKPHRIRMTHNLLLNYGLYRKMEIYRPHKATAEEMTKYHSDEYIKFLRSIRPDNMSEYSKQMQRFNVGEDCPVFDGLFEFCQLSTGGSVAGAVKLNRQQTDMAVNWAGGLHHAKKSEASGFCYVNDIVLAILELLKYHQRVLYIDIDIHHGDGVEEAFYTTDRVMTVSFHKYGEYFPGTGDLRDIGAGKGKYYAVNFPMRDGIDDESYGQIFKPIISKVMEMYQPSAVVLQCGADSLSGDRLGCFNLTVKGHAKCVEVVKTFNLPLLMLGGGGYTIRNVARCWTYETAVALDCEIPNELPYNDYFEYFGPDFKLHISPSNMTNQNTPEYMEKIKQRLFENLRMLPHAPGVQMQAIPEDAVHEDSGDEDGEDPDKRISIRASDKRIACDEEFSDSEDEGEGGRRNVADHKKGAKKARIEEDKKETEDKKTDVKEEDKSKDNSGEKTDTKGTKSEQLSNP
Sequence of Histone deacetylase 5 (Q9UQL6 whole entry): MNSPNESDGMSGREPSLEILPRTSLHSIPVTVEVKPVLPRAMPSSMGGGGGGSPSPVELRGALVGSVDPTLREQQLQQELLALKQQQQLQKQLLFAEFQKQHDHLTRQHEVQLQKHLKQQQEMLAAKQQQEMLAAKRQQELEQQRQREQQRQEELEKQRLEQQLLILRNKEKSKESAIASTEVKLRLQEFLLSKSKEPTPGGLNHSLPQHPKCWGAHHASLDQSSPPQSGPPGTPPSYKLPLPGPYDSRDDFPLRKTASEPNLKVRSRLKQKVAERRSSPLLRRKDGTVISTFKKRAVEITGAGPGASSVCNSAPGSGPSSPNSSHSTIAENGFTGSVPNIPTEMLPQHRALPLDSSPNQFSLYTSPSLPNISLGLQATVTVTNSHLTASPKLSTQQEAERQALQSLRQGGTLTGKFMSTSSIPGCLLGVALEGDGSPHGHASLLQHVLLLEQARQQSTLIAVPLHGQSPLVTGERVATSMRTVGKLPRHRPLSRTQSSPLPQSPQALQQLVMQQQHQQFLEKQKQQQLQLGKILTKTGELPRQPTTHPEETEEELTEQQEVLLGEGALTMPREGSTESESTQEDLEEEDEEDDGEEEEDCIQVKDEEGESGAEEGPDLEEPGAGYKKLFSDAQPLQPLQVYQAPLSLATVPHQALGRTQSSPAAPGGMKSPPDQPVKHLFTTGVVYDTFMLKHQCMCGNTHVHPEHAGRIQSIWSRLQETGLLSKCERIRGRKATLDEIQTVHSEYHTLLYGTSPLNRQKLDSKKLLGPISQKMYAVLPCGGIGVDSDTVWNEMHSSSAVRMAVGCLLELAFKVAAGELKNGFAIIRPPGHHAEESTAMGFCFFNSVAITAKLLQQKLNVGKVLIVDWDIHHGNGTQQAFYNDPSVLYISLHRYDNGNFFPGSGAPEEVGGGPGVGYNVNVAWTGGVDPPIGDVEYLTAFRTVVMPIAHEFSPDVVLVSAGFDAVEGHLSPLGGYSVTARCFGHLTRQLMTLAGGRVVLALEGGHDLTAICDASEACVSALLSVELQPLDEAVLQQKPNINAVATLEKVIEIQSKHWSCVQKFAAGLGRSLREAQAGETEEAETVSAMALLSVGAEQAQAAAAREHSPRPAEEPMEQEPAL
Sequence of Histone deacetylase 1 (Q13547 whole entry): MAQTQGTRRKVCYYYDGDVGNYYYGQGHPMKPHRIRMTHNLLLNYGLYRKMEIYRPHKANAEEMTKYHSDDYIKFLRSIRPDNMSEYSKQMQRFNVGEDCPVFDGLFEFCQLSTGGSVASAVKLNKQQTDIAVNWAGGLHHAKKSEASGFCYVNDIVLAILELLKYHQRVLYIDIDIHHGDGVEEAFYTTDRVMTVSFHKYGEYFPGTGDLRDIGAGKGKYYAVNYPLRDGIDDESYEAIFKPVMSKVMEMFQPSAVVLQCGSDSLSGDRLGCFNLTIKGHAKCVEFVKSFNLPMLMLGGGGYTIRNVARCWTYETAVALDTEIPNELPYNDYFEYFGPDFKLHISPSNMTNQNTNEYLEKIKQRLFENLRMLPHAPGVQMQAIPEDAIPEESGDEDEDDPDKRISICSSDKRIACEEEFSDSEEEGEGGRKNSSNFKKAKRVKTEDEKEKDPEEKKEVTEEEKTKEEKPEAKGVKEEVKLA
Sequence of Histone deacetylase 3 (O15379 whole entry): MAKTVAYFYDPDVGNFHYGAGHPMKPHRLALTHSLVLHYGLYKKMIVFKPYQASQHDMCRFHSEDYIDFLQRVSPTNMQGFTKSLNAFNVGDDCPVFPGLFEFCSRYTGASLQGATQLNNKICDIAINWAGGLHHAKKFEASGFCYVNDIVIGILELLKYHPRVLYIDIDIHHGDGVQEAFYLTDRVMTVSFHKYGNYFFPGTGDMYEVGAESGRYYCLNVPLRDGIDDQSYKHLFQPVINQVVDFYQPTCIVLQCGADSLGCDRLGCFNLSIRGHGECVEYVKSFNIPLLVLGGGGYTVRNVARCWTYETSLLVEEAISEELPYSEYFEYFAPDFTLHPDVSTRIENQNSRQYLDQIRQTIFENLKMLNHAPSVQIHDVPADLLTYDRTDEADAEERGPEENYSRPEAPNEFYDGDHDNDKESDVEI

| Structure (SMILES) | IC50 (CAL-27 [1]) | IC50 (CAL-27 [2]) | Activity (THP-1 [3]) | IC50 (Histone deacetylase 4) | IC50 (Histone deacetylase 2) | IC50 (Histone deacetylase 1) | IC50 [4] | IC50 (Histone deacetylase 5) | inhibition (THP-1 [5]) | IC50 [6] | IC50 [7] | IC50 (Histone deacetylase 3) | IC50 (Histone deacetylase 8) | residual activity (THP-1 [8]) | IC50 (Histone deacetylase 11) | IC50 (THP-1 [9]) |
| --- | --- | --- | --- | --- | --- | --- | --- | --- | --- | --- | --- | --- | --- | --- | --- | --- |
| O=C(NO)C(c1ccc(-c2ncc(C(F)(F)F)cn2)cc1)c1ccccc1F (configuration not stated) | 9.69 µM | 12.8 µM | – | – | – | – | – | – | – | – | – | – | – | – | – | – |
| O=C(CCCCCCC(=O)Nc1ccccc1)NO [VORINOSTAT] | – | – | 97% | – | – | – | – | – | – | – | – | – | – | – | – | – |
| CN(Cc1ccccc1)C(=O)c1ccc(-c2noc(C(F)(F)F)n2)cc1 | – | – | 34% | 0.025 µM | 8.13 µM | 14.6 µM | 0.54 µM | 0.154 µM | 78% | 2.03 µM | 29.1 µM | 6.86 µM | > 100 µM | 117% | > 100 µM | > 100 µM |
| CCN(CC)CCN(C)C(=O)c1ccc(-c2noc(C(F)(F)F)n2)cc1 | – | – | 31% | 0.198 µM | 34.8 µM | – | 1.27 µM | – | 65% | 16.9 µM | 14 µM | – | 10.8 µM | 98% | – | > 100 µM |
| O=C(Nc1cnc2ccccc2c1)c1ccc(-c2noc(C(F)(F)F)n2)cc1 | – | – | 63% | 5.54 µM | > 100 µM | – | > 100 µM | – | 0% | > 100 µM | > 100 µM | – | > 100 µM | 18% | – | 47.3 µM |
| CN(C(=O)c1ccc(-c2noc(C(F)(F)F)n2)cc1)c1ccccc1 | – | – | 33% | 0.75 µM | > 100 µM | – | 6.39 µM | – | 31% | 19.6 µM | > 100 µM | – | 71.8 µM | 118% | – | > 100 µM |
| O=C(NOCCN1CCOCC1)c1ccc(-c2noc(C(F)(F)F)n2)cc1 | – | – | 47% | 0.141 µM | 9.77 µM | 2.21 µM | 0.429 µM | 0.151 µM | 41% | 18.1 µM | > 100 µM | 2.36 µM | 7.13 µM | 100% | > 100 µM | ~100 µM |
| CCN(CC)CCCCNC(=O)c1ccc(-c2noc(C(F)(F)F)n2)cc1 | – | – | 47% | 0.139 µM | 25.4 µM | – | 1.17 µM | – | 73% | 5.61 µM | 13.7 µM | – | 6.72 µM | 102% | – | ~100 µM |
| CN1CCN(C(=O)c2ccc(-c3noc(C(F)(F)F)n3)cc2)CC1 | – | – | 39% | 1.18 µM | 80 µM | – | 5.51 µM | – | 23% | 55.4 µM | > 100 µM | – | 16.1 µM | 103% | – | > 100 µM |
| Cc1[nH]c2ccccc2c1CCNCc1ccc(/C=C/C(=O)NO)cc1 [PANOBINOSTAT] | – | – | 96% | – | – | – | – | – | – | – | – | – | – | – | – | 0.001 µM |
| O=C(NCCc1c[nH]c2ccccc12)c1ccc(-c2noc(C(F)(F)F)n2)cc1 | – | – | 49% | 0.69 µM | > 100 µM | – | 14.5 µM | – | 64% | > 100 µM | – | – | > 100 µM | 97% | – | ~100 µM |
| CN(C)c1ccc(CNC(=O)c2ccc(-c3noc(C(F)(F)F)n3)cc2)cc1 | – | – | 49% | 0.94 µM | > 100 µM | – | 5.51 µM | – | 25% | > 100 µM | > 100 µM | – | > 100 µM | 103% | – | ~100 µM |
